One series has as its target CYP3A4 (Homo sapiens, UniProt P08684). Put plainly: Inhibition of cytochrome P450 3A4 was determined at 2 uM.
Series [1] has as its target T1, CYP2D6 (Homo sapiens, UniProt P10635). Put plainly: (§1) Inhibition of cytochrome P450 2D6 at 2 uM.
A further series has as its target Cytochrome P450 2D6 (Homo sapiens, UniProt P10635). Put plainly: Predictive competitive inhibition of cytochrome P450 2D6 was determined in silico.
The target in series [2] is T2, Sodium channel alpha subunits; brain (Types I, II, III) (Rattus norvegicus, UniProt P04775+P04774+P08104). Put plainly: In vitro inhibition of [3H]batrachotoxin binding to neurotoxin site 2 of sodium (Na+) channel in rat cerebral cortex membrane. Type of series: cell membranes.
The target of series [3] is T2, Sodium channel alpha subunits; brain (Types I, II, III). Put plainly: Inhibitory concentration against [3H]batrachotoxin binding to neurotoxin site 2 of sodium (Na+) channel in vitro in rat cerebral cortex membrane at 1 uM. Type of series: cell membranes.
The species entered for series [4] is Rattus norvegicus. The experiment in a line: Inhibition of tetrodotoxin (TTX) resistant current by the compound was determined at 10 uM using whole-cell patch clamp tests in cultured rat dorsal root ganglion (DRG). The format is functional. In general terms: In patch-clamp work, channel activity is measured electrically.
Series [5] is filed under the species Rattus norvegicus. The experiment in a line: Inhibition of tetrodotoxin (TTX) sensitive current by the compound was determined at 10 uM using whole-cell patch clamp tests in cultured rat dorsal root ganglion (DRG). Type of series: functional.
The target of series [6] is T1, CYP2D6. Described as §1. The format is ADME.

Usually inhibition stands for the change of the read-out against control, counted positive when it falls. As a reminder, the Ki is a measure of affinity in units of concentration, obtained from inhibition or displacement. As usually defined, the IC50 is the midpoint of a concentration-inhibition curve. Read a low IC50 as greater potency in that assay. The Inhibition is how much of the control response was suppressed.

Cytochrome P450 2D6, sequence (P10635 whole entry): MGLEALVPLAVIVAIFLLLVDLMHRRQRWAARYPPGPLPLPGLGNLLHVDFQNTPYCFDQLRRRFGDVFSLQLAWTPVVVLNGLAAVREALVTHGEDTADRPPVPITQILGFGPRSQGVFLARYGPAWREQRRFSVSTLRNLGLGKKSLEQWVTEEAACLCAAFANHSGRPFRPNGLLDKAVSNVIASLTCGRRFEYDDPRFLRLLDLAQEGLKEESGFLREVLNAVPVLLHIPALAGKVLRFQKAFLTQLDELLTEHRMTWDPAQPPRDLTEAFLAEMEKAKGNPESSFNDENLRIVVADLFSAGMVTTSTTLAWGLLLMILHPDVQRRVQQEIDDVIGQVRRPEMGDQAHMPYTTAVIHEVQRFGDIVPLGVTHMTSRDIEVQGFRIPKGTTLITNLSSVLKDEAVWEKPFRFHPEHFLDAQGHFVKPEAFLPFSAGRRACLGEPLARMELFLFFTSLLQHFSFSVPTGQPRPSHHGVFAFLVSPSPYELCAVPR
T1 sequence (P10635 whole entry): as above
CYP3A4, sequence (P08684 whole entry): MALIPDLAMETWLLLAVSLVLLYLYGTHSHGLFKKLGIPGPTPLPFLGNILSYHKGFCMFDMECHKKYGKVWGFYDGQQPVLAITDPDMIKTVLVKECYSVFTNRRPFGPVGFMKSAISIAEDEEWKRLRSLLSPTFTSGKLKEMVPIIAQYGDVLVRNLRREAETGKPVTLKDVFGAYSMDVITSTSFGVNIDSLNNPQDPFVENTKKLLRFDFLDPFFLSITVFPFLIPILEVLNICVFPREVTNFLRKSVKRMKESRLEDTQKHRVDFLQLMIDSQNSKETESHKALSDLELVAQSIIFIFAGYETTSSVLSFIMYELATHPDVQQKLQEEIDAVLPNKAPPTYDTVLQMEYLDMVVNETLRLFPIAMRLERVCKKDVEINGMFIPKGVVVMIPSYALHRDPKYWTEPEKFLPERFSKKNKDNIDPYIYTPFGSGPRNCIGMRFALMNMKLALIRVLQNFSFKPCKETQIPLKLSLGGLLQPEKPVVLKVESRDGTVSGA

Regarding `COc1ccc(OCC(O)CN2CCN(C(CNC(=O)c3ccccc3OC)c3ccccc3)CC2)cc1` (stereo unspecified), the inhibition at 2 µM on CYP3A4 stood at 93%; on CYP2D6 [1] it was 9%. Besides, the Ki on Cytochrome P450 2D6 was 8000 nM. The molecule further returned an IC50 in series [2] of 721 nM.
Take `COc1ccc(CNC(=O)C(c2ccc(C(F)(F)F)cc2)N2CCN(CC(O)COc3ccc(OC)cc3)CC2)cc1` (stereo unspecified): the results for the inhibition at 2 µM against CYP3A4 and against CYP2D6 [1] were 88% and 0%, respectively. For the same molecule, the Ki at Cytochrome P450 2D6 is 4000 nM. For the same molecule, the IC50 in series [2] worked out at 359 nM.
For the molecule `O=S(=O)(NCC(c1ccc(C(F)(F)F)cc1)N1CCN(CC(O)COc2ccc(F)cc2)CC1)c1ccccc1Cl` (stereo unspecified), the inhibition at 2 µM was 92% at CYP3A4 and 56% against CYP2D6 [1]. Further, the inhibitory constant (Ki) at Cytochrome P450 2D6 is 10000 nM. The IC50 in series [3] was found to be 76 nM.
With `COc1ccc(C(=O)NCC(c2ccccc2)N2CCN(CC(O)COc3ccc(Cl)cc3)CC2)cc1` (stereo unspecified), the results for the inhibition at 2 µM on CYP3A4 and at CYP2D6 [1] were 96% and 47%, respectively. For the same molecule, on Cytochrome P450 2D6, the Ki is 4000 nM. Besides, in series [2], the IC50 is 538 nM.
`COc1ccc(OC)c(S(=O)(=O)NCC(c2ccccc2)N2CCN(CC(O)COc3ccc(Br)cc3)CC2)c1` (stereo unspecified): the inhibition at 2 µM on CYP3A4 was found to be 100%; at CYP2D6 [1], 25%. The Ki on Cytochrome P450 2D6 is 30000 nM. The same molecule showed an IC50 in series [2] of 522 nM.
Consider `O=C(NCC(c1ccccc1)N1CCN(CC(O)COc2ccccc2)CC1)c1ccc(F)cc1` (stereo unspecified), for which the results for the inhibition at 2 µM on CYP3A4 and against CYP2D6 [1] were 61% and 9%, respectively. For the same molecule, at Cytochrome P450 2D6, the Ki is 7000 nM. Also, the IC50 in series [2] worked out at 363 nM.
For `COc1ccc(CNC(=O)C(c2ccc(C)cc2)N2CCN(CC(O)COc3c(C)cccc3C)CC2)cc1` (stereo unspecified), the inhibition at 2 µM was determined as 74% against CYP3A4 and 14% against CYP2D6 [1]. In addition, at Cytochrome P450 2D6, the Ki was 3000 nM. Besides, the IC50 in series [2] turned out to be 351 nM.
For `COc1ccc(CNC(=O)C(c2ccc(OC)cc2)N2CCN(CC(O)COc3c(C)cccc3C)CC2)cc1` (stereo unspecified), in that order: 74%, 9%, 5000 nM and 571 nM.
Consider `COc1ccc(OCC(O)CN2CCN(C(C(=O)NCc3ccccc3)c3ccc(F)cc3)CC2)cc1` (stereo unspecified), for which the inhibition at 2 µM at CYP3A4 worked out at 49%; at CYP2D6 [1], 0%. Further, the inhibitory constant (Ki) at Cytochrome P450 2D6 is 5000 nM. The IC50 in series [2] was 254 nM.
`COc1ccc(CNC(=O)C(c2ccc(F)cc2)N2CCN(CC(O)COc3ccc(OC)cc3)CC2)cc1` (stereo unspecified): the inhibition at 2 µM against CYP3A4 is 81%; at CYP2D6 [1] it was 10%. In addition, the Ki on Cytochrome P450 2D6 is 7000 nM. Also, the IC50 in series [2] was 214 nM.
For `COc1ccc(OCC(O)CN2CCN(C(CNC(=O)c3ccc(F)cc3)c3ccccc3)CC2)cc1` (stereo unspecified), in that order: 22%, 33%, 3000 nM and 531 nM.
The molecule `OC(COc1ccccc1)CN1CCN(C(c2ccccc2)c2ccc(C(F)(F)F)cc2)CC1` (stereo unspecified) had an inhibition at 2 µM at CYP2D6 [1] of 87%. For the same molecule, the Ki at Cytochrome P450 2D6 is 600 nM. Also, the Inhibition is listed as 57% in the series listed under Rattus norvegicus [4] and 61% in the series filed under Rattus norvegicus [5]. In series [2], the half-maximal inhibitory concentration (IC50) is on record as 893 nM.
Consider `Cc1cccc(C)c1OCC(O)CN1CCN(C(C(=O)NCc2ccccc2)c2ccc(F)cc2)CC1` (stereo unspecified), for which the values for the inhibition at 2 µM against CYP3A4 and on CYP2D6 [1] were 38% and 20%, respectively. Besides, the Ki on Cytochrome P450 2D6 is 2000 nM. The molecule also yielded a half-inhibitory concentration (IC50) in series [2] of 149 nM.
In the case of `COc1ccc(OCC(O)CN2CCN(C(CNC(=O)c3ccc(OC)cc3)c3ccccc3)CC2)cc1` (stereo unspecified), the inhibition at 2 µM on CYP3A4 was 95%; at CYP2D6 [1], 12%. In addition, the Ki at Cytochrome P450 2D6 was 8000 nM. In series [2], this molecule came in with a half-maximal inhibitory concentration (IC50) of 871 nM.
The corresponding values for `COc1ccc(OCC(O)CN2CCN(C(C(=O)NCc3ccccc3)c3ccc(C(F)(F)F)cc3)CC2)cc1` (stereo unspecified) are 68%, 13%, 2000 nM and 429 nM.
The molecule `C=CCOCC(O)CN1CCN(C(c2ccccc2)c2ccc(Cl)cc2)CC1` (stereo unspecified) returned an inhibition at 2 µM against CYP2D6 [6] of 87%. Further, the Ki at Cytochrome P450 2D6 is 100 nM. In the series filed under Rattus norvegicus [5], this molecule had an Inhibition of 20%. In addition, the IC50 in series [2] was found to be 401 nM.
For the molecule `COc1ccc(OCC(O)CN2CCN(C(C(=O)NCc3ccccc3)c3ccc(C)cc3)CC2)cc1` (stereo unspecified), the values for the inhibition at 2 µM at CYP3A4 and on CYP2D6 [1] were 65% and 10%, respectively. Moreover, the inhibition constant (Ki) on Cytochrome P450 2D6 is 4000 nM. In addition, in series [2], the IC50 turned out to be 579 nM.
For `Cc1cccc(S(=O)(=O)NCC(c2ccc(C(F)(F)F)cc2)N2CCN(CC(O)COc3ccc(Br)cc3)CC2)c1` (stereo unspecified), the inhibition at 2 µM on CYP3A4 turned out to be 76%; on CYP2D6 [1], 27%. For the same molecule, the Ki at Cytochrome P450 2D6 is 10000 nM. In series [3], this molecule had an IC50 of 95 nM.
Take `Cc1ccc(C(C(=O)NCc2ccccc2)N2CCN(CC(O)COc3c(C)cccc3C)CC2)cc1` (stereo unspecified): the values for the inhibition at 2 µM on CYP3A4 and against CYP2D6 [1] were 44% and 26%, respectively. For the same molecule, the Ki on Cytochrome P450 2D6 is 2000 nM. This molecule also displayed an IC50 in series [2] of 325 nM.
The corresponding values for `COc1ccc(CNC(=O)C(c2ccc(C(F)(F)F)cc2)N2CCN(CC(O)COc3c(C)cccc3C)CC2)cc1` (stereo unspecified) are 62%, 8%, 2000 nM and 355 nM.

(Values after ChEMBL document CHEMBL1147532, “The design, preparation and SAR of novel small molecule sodium (Na(+)) channel blockers” (Bioorg Med Chem Lett, 2004).)
